US10766873B2, “Zuclopenthixol hydrochloride derivatives and Ebselen derivatives as ErbB2 inhibitors” (Centre National de la Recherche Scientifique (CNRS), priority 2016, dated 2020)

Tests used:
[1] = biological target: T1, FERM/ErbB2 interaction (Ezrin FERM domain / juxtamembrane ErbB2 peptide) (Homo sapiens, UniProt P04626); test: AlphaScreen competition assay, FERM/ErbB2 interaction; type: binding; settings: 1 h
T1 construct: made in house
Text: To validate that the Zuclopenthixol hydrochloride (ZU) and its derivatives interact with the juxtamembrane domain of ErbB2, we first analyzed in AlphaScreen® their efficiency to inhibit FERM/ErbB2 interaction in a dose-dependent manner and determined IC50 value. Furthermore, to test the selectivity of those compounds, we tested their ability to disrupt the interaction between the FERM domain and the known ERM binding motif contained in the juxtamembrane region of CD44 as a control.
AlphaScreen® technology was used to assess the interaction between the Ezrin binding motif (EBM) contained in the juxtamembrane portions of ErbB2 or CD44 with the Ezrin FERM domain. For this purpose the Ezrin FERM domain in fusion with Glutathione-S-Transferase (GST) has been coupled to GSH-coated acceptor beads. […] The AlphaScreen® reagents (Glutathione-coated Acceptor beads and streptavidin-coated Donor beads) were obtained from PerkinElmer.
The reaction was performed using white 384-well Optiplates (PerkinElmer, Whalham, Mass., USA) in 20 μl (total reaction volume) in a reaction buffer containing PBS, pH 7.4, 5 mM MgCl2 and 0.02% CHAPS. […] 10 μl of a mix solution containing 20 μg/ml Glutathione-coated Acceptor beads and 20 μg/ml streptavidin-coated Donor beads was then added to the wells and incubation was further proceeded for 40 min or overnight in the dark and at room temperature. Light signal was detected with the EnVision® multilabel plate reader (PerkinElmer). All experiments involving AlphaScreen® beads were performed under subdued lighting.

BT474 = test: MTT cell proliferation, BT474; type: cell-based, human
Description: (§1) We then analyzed the ability of ZU and EB1 and their derivatives to decrease the ErbB2-dependent cell proliferation.
(§2) SKBR3, BT474, MCF-7, MDA-MB-231 and HBMEC cells were treated with the compounds as indicated, and cell proliferation was determined each day during 3 days using an MTT assay. Non treated cells were included as a negative control.
A solution of ZU in cis conformation was mixed to a solution of ZU in trans conformation (1:1) to obtain ZU in a 50/50 cis/trans conformation and their respective effects on ErbB2 activation and ErbB2-dependent cell proliferation were analyzed as previously by dot blot analysis using an anti-phosphotyrosine antibody (clone 4G10) and by MTT assays in the ErbB2-overexpressing breast cancer cell line SKBR3, BT474, or HBMEC as a control.

MCF7 = test: MTT cell proliferation, MCF7; type: cell-based; settings: 10 μM
Description: as §1, §2

[2] = biological target: peptide encoding the juxtamembrane region of ERBB2 (Homo sapiens, UniProt P04626); test: Surface Plasmon Resonance, Biacore T200; type: binding
Text: We analyzed the ability of ZU to directly bind to the juxtamembrane domain of ErbB2 using Surface Plasmon Resonance assays on a Biacore T200. For that, we compared the affinity of the compounds for a peptide containing the Ezrin binding motif […] of ErbB2 immobilized on sensorchips, which was reflected by the amplitude of the SPR response.
Compound ZU and EB1 were validated for their interaction with peptide encoding the juxtamembrane region of ERBB2 using a Biacore T200 (IECB, Bordeaux). Biotinylated peptide encoding the juxtamembrane region of ERBB2 (biotin-[…]) has been immobilized on Streptavidin-coated sensor chips (Series S sensor chip SA, GE Healthcare). Compound ZU in PBS, 0.02% tween20 buffer was used as analyte, and the Ezrin FERM domain has been used as a positive control.

[3] = system: EGFR/ErBB2 or ErbB3/ErbB2 heterodimers-dependent signalling pathways; test: Ligand-dependent ErbB2 activation (EGF or HRG) in HBMECs, western blot; type: cell-based; settings: pre-treatment 1 h or 24 h
Description: In physiological conditions, ErbB2 activation occurs in heterodimer with the other ErbB family members, such as the EGFR in response to EGF stimulation or ErbB3 in response to heregulin (HRG) stimulation. We therefore addressed whether ZU, EB1 and their derivatives also affected the ligand-dependent physiological ErbB2 activation.
16 h-starved HBMECs cells were pre-treated or not for 1 h or 24 h with ZU, […] and their derivatives or AG1478 before EGF (50 ng/mL) or HRG1β (100 ng/mL) stimulation for 5 minutes. The activation of EGFR/ErBB2 or ErbB3/ErbB2 heterodimers-dependent signalling pathways was then analysed by western blot experiments using pAkt, Akt, pERK, ERK or 4G10 antibodies.

[4] = system: V842I ErbB2-transfected cells; test: MTT cell proliferation, V842I ErbB2-transfected HBMEC; type: cell-based; settings: day 3
Description: The WT, V777L or V842I ErbB2-transfected cells were treated with 5 or 10 μM of ZU and cell proliferation was determined each day during 3 days using an MTT assay. Non transfected cells were included as a negative control.
The WT, V777L or V842I ErbB2-transfected cells were treated with 5 or 10 μM of EB1 and cell proliferation was determined each day during 3 days using an MTT assay. Non transfected cells were included as a negative control.

ErbB2 = ErbB2 (Homo sapiens, UniProt P04626); test: ErbB2 activation in N87 cells, dot blot (4G10); type: cell-based; design: endogenous in cells; host or cells: N87
Sequence of ErbB2 (P04626 23-1255): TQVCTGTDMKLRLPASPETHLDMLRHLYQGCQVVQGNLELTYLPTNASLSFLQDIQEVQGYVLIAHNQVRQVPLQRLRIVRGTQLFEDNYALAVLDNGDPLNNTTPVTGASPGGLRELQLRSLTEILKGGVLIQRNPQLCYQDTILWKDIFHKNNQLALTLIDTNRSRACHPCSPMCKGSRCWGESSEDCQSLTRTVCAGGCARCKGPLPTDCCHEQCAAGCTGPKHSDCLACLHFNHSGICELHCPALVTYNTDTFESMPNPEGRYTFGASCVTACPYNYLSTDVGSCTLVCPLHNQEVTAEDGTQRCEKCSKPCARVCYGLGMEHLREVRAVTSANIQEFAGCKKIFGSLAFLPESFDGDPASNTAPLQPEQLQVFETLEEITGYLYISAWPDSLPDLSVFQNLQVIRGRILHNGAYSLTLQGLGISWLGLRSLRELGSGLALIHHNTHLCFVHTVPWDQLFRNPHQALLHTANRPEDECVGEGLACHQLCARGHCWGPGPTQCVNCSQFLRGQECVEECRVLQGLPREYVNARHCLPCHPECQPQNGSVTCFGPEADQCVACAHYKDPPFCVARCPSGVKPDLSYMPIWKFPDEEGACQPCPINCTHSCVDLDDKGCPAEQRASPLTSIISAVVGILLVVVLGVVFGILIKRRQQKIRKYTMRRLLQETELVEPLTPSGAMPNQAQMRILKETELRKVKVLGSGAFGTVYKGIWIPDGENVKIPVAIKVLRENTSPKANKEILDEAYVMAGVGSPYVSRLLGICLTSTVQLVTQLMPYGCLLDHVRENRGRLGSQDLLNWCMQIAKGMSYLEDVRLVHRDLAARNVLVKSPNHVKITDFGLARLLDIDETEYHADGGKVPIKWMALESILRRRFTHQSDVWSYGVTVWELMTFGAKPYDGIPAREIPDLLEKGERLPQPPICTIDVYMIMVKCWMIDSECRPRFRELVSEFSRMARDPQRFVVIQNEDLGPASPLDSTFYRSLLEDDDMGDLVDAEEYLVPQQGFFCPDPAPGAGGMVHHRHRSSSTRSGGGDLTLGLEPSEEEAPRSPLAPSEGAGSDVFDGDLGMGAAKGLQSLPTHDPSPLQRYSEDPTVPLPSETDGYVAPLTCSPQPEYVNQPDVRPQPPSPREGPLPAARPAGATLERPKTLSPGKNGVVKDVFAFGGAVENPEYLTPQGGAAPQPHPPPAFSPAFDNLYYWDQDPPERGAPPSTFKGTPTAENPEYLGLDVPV
Description: The phosphotyrosine content in the ErbB2-overexpressing gastric cancer cell line N87 was analyzed by dot blot using an anti-phosphotyrosine antibody (clone 4G10). As in these cells, ErbB2 is the main phosphorylated protein, decreased in total phosphotyrosine content mainly reflected inhibition of ErbB2 activity. As a control, the non-specific ErbB2 kinase inhibitor AG1478 was used. Quantifications show the result of two independent experiments.

O=C1c2ccccc2[Se](=O)N1c1ccccc1 (stereo not shown) [EB1, Ebselen oxide]
inhibition of FERM/ErbB2 interaction [1]: 43% | IC50 (BT474; Homo sapiens, BT-474): 5.5 µM | EC50 (BT474; Homo sapiens, BT-474, 72 h, day 3, read-out: Cell proliferation at d 3 BT474 EC50): 5.5 µM | Cell proliferation at d 3 BT474 Max inhibition, % (BT474; day 3): 100% | effect on MCF7 proliferation (in words) (MCF7): without any effect | binding to immobilized ErbB2 juxtamembrane peptide (SPR, in words) [2]: bound to the immobilized peptide | ligand-dependent ErbB2 activation induced by EGF or HRG stimulation (in words) [3]: absence of inhibition | decrease of the proliferation of V842I transfected HBMEC ([4]; 5 μM): 55% | decrease of the proliferation of V842I transfected HBMEC ([4]; 10 μM): 90% | ErbB2 activation in N87 cell line (in words) (ErbB2): potently decrease ErbB2 activation
